Assay results published in article PMC8678981, “PET Imaging of VMAT2 with the Novel Radioligand [^18F]FE-DTBZ-d4 in Nonhuman Primates: Comparison with [^11C]DTBZ and [^18F]FE-DTBZ” (ACS Chemical Neuroscience, 2021).

Key:
[1] = tested on: VMAT2; conditions: cited from earlier work
[2] = tested on: VMAT2; experiment: PET quantification of VMAT2 binding (BPND, Logan noninvasive analysis, cerebellum reference); assay type: in vivo, cynomolgus monkey; conditions: for Binding potential (BPND) caudate / Binding potential (BPND) midbrain / Binding potential (BPND) putamen: Logan noninvasive analysis, cerebellum as reference region; for peak equilibrium: cynomolgus monkey brain, baseline PET
Description: The outcome measure was the binding potential (BPND).

[3] = Radiometabolite analysis in monkey plasma by gradient radio-HPLC; assay type: in vivo, cynomolgus monkey; conditions: 90 min after injection
Description: Radiometabolite analysis was performed following a method reported elsewhere.[34] Venous blood samples (2 mL) were obtained from the monkey at different time points such as 2.5, 15, 30, 45, 60, 90, 120, 150, and 180 min after injection of [^18F]FE-DTBZ/[^18F]FE-DTBZ-d4. For [^11C]-DTBZ, venous blood samples (2 mL) were obtained at time points 2.5, 15, 30, 45, 60, and 90 min after injection. Collected blood was centrifuged at 2000g for 2 min to obtain the plasma (0.5 mL). The plasma was mixed with 1.4 times volume of acetonitrile followed by centrifugation at 2000g for 4 min. The extract was separated from the pellet and was diluted with water before injecting into the HPLC equipped with a reverse-phase μ-Bondapak HPLC column, (300 mm × 10 mm I.D). […] Peaks for radioactive compounds eluting from the column were integrated and their areas were expressed as a percentage of the sum of the areas of all detected radioactive compounds (decay-corrected to the time of injection on the HPLC). To calculate the recovery of radioactivity from the system, an aliquot (2 mL) of the eluate from the HPLC column was measured and divided by the amount of the total injected radioanalyte.

[4] = Plasma protein binding by ultrafiltration; assay type: in vitro ADME; conditions: cynomolgus, cynomolgus monkey, pH 7.4, NHP plasma, baseline, read-out: plasma free fraction (fP)
Description: Plasma protein binding of all three radioligands was measured in duplicate in baseline conditions. NHP blood plasma (500 μL) and a PBS solution (pH 7.4, KCl 0.2 mg, KH2PO4 0.2 mg, Na2HPO4 1.42 mg, NaCl 8 mg in 1 mL) were mixed with the respective radioligand (50 μL, approx. 20 MBq in PBS). The plasma mixture was incubated for 10 min at room temperature and a small portion (20 μL) from each incubation mixture was measured in a well counter. A portion (200 μL) from all individual incubation mixtures was pipetted out into ultrafiltration tubes (Millipore Centrifree YM-30) and centrifuged at 3000 rpm for 15 min. Samples (20 μL) from each filtrate were counted in a well counter. The following formula was used to calculate the protein-bound fraction. [drawing 1] where Cpla (total) is the radioactivity concentration of the incubation mixture in plasma, CPBS (total) is the radioactivity concentration of the incubation mixture in PBS, and Cpla (filtrate) and […] the radioactivity concentrations from filtrate samples.

[5] = tested on: VMAT2; conditions: rats; cited from earlier work
[6] = cited from earlier work
[7] = PET whole brain uptake and kinetics in cynomolgus monkeys (HRRT); conditions: whole brain peak, baseline PET
Description: Anesthesia was induced by intramuscular injection of ketamine hydrochloride (approximately 10 mg/kg, Ketaminol vet. Intervet) and maintained by the administration of a mixture of sevoflurane, oxygen, and medical air after endotracheal intubation. The head was immobilized using a fixation device.[32]
Three female cynomolgus monkeys (NHP1, NHP2, and NHP3) (weight of 5.8–6.95 kg) were studied in 10 different experimental days for a total of 12 PET experiments. All PET experiments were performed using a high-resolution research tomograph (HRRT) PET scanner (Siemens Molecular Imaging, Knoxville, TN). A 6 min transmission scan was performed every time before the injection of the radioligands using a single ^137Cs source. […]
All three monkeys underwent two PET measurements on the same day at once. […] Venous blood sampling was performed manually for the measurement of protein binding, blood, and plasma radioactivity and radiometabolite analysis. […]
The regions of interest (ROIs) were delineated manually on the MRI images of each NHP for putamen, caudate, midbrain, occipital cortex, and cerebellum. […] Quantification was performed using the Logan graphical analysis, and the cerebellum was used as a reference region. […]

[8] = tested on: VMAT2; experiment: Pretreatment and displacement PET with tetrabenazine using [^18F]FE-DTBZ-d4; assay type: in vivo, cynomolgus monkey; conditions: tetrabenazine 2 mg/kg
Description: In NHP1, one PET measurement was performed after pretreatment with tetrabenazine (2 mg/kg), which was administered 15 min prior to the administration of [^18F]FE-DTBZ-d4. In NHP2, two displacement experiments were performed with the administration of tetrabenazine (2 mg/kg) 25 min after the injection of [^18F]FE-DTBZ-d4.
The regions of interest (ROIs) were delineated manually on the MRI images of each NHP for putamen, caudate, midbrain, occipital cortex, and cerebellum. The MRI of all of the individual NHPs was coregistered to summed PET images of the whole PET measurement. The time–activity curves of NHP brain regions were generated from dynamic PET data with the application of the coregistration parameters to ROIs. Quantification was performed using the Logan graphical analysis, and the cerebellum was used as a reference region. The outcome measure was the binding potential (BPND).

peak equilibrium [2]	percent of unchanged radioligand in plasma [3]	fraction unbound at 10 min, 36 MBq/mL [4]	brain uptake (SUV) [7]	uptake of [^18F]FE-DTBZ-d4 in caudate, putamen, and midbrain in displacement experiment ([8]; 25 min after radioligand injection)	Compound	better binding affinity over the (−)-enantiomer [1]	Binding potential (BPND) caudate [2]	Binding potential (BPND) midbrain [2]	Binding potential (BPND) putamen [2]	striatum-to-cerebellum ratio [5]	in vivo metabolism ([6]; large piglet model)	bone uptake ([6]; PET/CT in pigs, compared with [^18F]FE-(+)-DTBZ)	uptake of [^18F]FE-DTBZ-d4 in caudate, putamen, and midbrain after pretreatment ([8]; 15 min prior to radioligand injection)
–	–	–	–	–	COc1cc2c(cc1OC)[C@H]1C[C@@H](O)[C@H](CC(C)C)CN1CC2 (single isomer, unassigned) [(+)-enantiomer, dihydrotetrabenazine]	1000 fold	–	–	–	–	–	–	–
> 60 min	10 ± 4%	0.56	3.43 ± 0.54	–	COc1cc2c(cc1OCC[18F])CCN1C[C@@H](CC(C)C)[C@H](O)C[C@H]21 [[^18F]FE-DTBZ, ^18F-fluoroethyl-(+)-dihydrotetrabenazine]	–	3.8 ± 0.5	1.1 ± 0.1	4.7 ± 0.3	relatively poor	metabolized extensively by in vivo defluorination	–	–
40 min	30 ± 17%	0.52 ± 0.01	4.28 ± 1.01	–	[2H]C([2H])([18F])C([2H])([2H])Oc1cc2c(cc1OC)[C@H]1C[C@@H](O)[C@H](CC(C)C)CN1CC2 [[^18F]FE-DTBZ-d4]	–	4.4 ± 1.1	1.4 ± 0.4	5.5 ± 1.4	–	–	lower bone uptake	–
–	–	–	–	clear reduction	COc1cc2c(cc1OC)C1CC(=O)C(CC(C)C)CN1CC2 (centres unmarked) [tetrabenazine]	–	–	–	–	–	–	–	decreased almost to the level of the cerebellum and occipital cortex
